Results on nine compounds are retold here after PubChem BioAssay (NCI).

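In this assay, cells in 96-well plates receive the compound at five concentrations for 48 hours. Endpoints are linearly interpolated between the surrounding concentrations. At the GI50, growth is halved. TGI denotes the concentration required for complete inhibition of growth.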 A value given as a limit tells only on which side of the number the result lay.

Holding throughout (assay): NCI anticancer screen, dose series, 48 h
Assay [1] has as its system NCI-H23 lung.
The test system of assay [2] is U251 CNS.
Assay [3] deals with HL-60(TB) leukemia.
Assay [4] concerns 786-0 renal.
The subject of assay [5] is NCI/ADR-RES ovarian.
Assay [6] relates to HOP-62 NSCLC.
Assay [7] concerns MDA-MB-435.
Assay [8] concerns K-562 leukemia.
The subject of assay [9] is SW-620 colon.
Assay [10] deals with UACC-257 melanoma.

As for `O=C(O)c1ccc(-c2ccc(C(=O)O)cc2I)c(I)c1`, the GI50 in assay [1], in [2], in assay [3], in assay [4], in [5] and in [6] was over 100 µM in each case. Besides, the GI50 in assay [7], in [8], in assay [9] and in assay [10] was over 100 µM in each case. In addition, the TGI in [1], in assay [2], in assay [3], in [4], in assay [5] and in assay [6] was over 100 µM in each case. Moreover, the TGI in assay [7], in assay [8], in assay [9] and in [10] was over 100 µM each time.
Turning to `COc1ccc(/C(Cl)=C(\C=O)c2ccc(OC)c(OC)c2)cc1OC`, the TGI in assay [1], in assay [2], in assay [3], in assay [4], in [5] and in [6] was over 100 µM in each case. Also, the TGI in [7] was over 100 µM; in assay [8], over 100 µM; in assay [9] it was over 100 µM; in [10], over 66.3 µM.
As for `O=[N+]([O-])c1cc(Cl)cc2c1nc(NCCO)c1ccccc12`, the TGI is over 80.9 µM in [1]; over 100 µM in assay [2]; over 56.2 µM in [3]; over 100 µM in assay [4]; over 100 µM in [5]; over 100 µM in assay [6]. The TGI in assay [7] was over 100 µM; in assay [8], over 94 µM; in assay [9], over 100 µM; in assay [10], 54.8 µM.
On to `CCCCN(CCCC)CC(C)(C)C(O)c1ccc(OC)c2ccccc12` (stereo not given), for which the GI50 in [1] is 2.29 µM; in assay [2], 3.47 µM; in [3] it was 2.98 µM; in assay [4], 10 µM; in assay [5], 6.13 µM; in assay [6] it was 6.5 µM. The GI50 in assay [7] is 5.05 µM; in [8], 2.51 µM; in assay [9], 2.54 µM; in assay [10], 6.31 µM. For the same compound, the TGI in [1] came out at 9.36 µM; in [2], 13.4 µM; in assay [3], 15.8 µM; in assay [4], 28 µM; in assay [5], 23.8 µM; in assay [6] it was 20.6 µM. The TGI in [7] turned out to be 28.6 µM; in [8], 13.6 µM; in [9] it was 14.5 µM; in assay [10], 23.8 µM.
As for `C=C1C(=O)O[C@H]2[C@H]1[C@H](OC(=O)/C(C)=C\C)C[C@]1(CO1)[C@@H]1[C@H](OC(C)=O)C=C(C)[C@]21O`, the TGI in assay [1] was 53.2 µM; in [2], 52 µM; in assay [3], 12.9 µM; in assay [4], 23.5 µM; in assay [5], 57.4 µM; in assay [6], over 100 µM. Moreover, the TGI in assay [7] was 42.4 µM; in assay [8] it was 11.8 µM; in assay [9] it was 27.9 µM; in assay [10] it was 39.2 µM.
Consider `Cc1ccccc1-n1c(/C=C\c2ccccn2)nc2ccccc2c1=O`, for which the GI50 in [1] was 6.06 µM; in [2] it was 11 µM; in [3], 6.12 µM; in [4], 20.6 µM; in assay [5], 7.16 µM; in assay [6], 47.4 µM. The GI50 in assay [7] is 8.23 µM; in assay [8], 4.42 µM; in assay [9], 13.2 µM; in assay [10], 31 µM. Moreover, the TGI is 57.4 µM in [1]; 25.8 µM in [2]; over 100 µM in assay [3]; 64.4 µM in [4]; 79.5 µM in [5]; over 100 µM in [6]. The TGI in assay [7] is 53 µM; in [8] it was 90.2 µM; in [9], 56.2 µM; in [10], over 100 µM.
As for `CC1CCCN(CC(O)CN2CCCc3ccccc32)C1` (stereo not given), the TGI was over 100 µM in assay [1]; over 100 µM in assay [2]; 46.6 µM in [3]; over 100 µM in [4]; over 100 µM in assay [5]; over 100 µM in assay [6]. Further, the TGI in [7], in assay [8], in [9] and in [10] was over 100 µM in each case.
Consider `CCOC(=O)c1cc2cc(NC(=O)c3cc4cc([N+](=O)[O-])ccc4n3C)ccc2n1C`, for which the GI50 in [1] is 12.3 µM; in assay [2], 14.1 µM; in [3], over 100 µM; in [4] it was 17.6 µM; in assay [5] it was 16.8 µM; in assay [6] it was 19.7 µM. The GI50 in assay [7] is 60.9 µM; in assay [8], 59.1 µM; in assay [9], 93.5 µM; in assay [10] it was 46.6 µM. Moreover, the TGI in assay [1] was 37 µM; in assay [2] it was 30.9 µM; in [3] it was over 100 µM; in assay [4], 31.9 µM; in [5] it was 45.3 µM; in assay [6], 35.3 µM. Also, the TGI in assay [7], in [8], in assay [9] and in assay [10] was over 100 µM each time.
Turning to `C=CC[Se]C(=O)Cc1c(C)n(C(=O)c2ccc(Cl)cc2)c2ccc(OC)cc12`, the GI50 was 1.91 µM in assay [1]; 1.1 µM in assay [2]; 2.26 µM in [3]; 1.73 µM in assay [4]; 1.94 µM in [5]; 0.435 µM in assay [6]. Moreover, the GI50 in assay [7] was 2.71 µM; in assay [8], 3.22 µM; in assay [9] it was 1.99 µM; in assay [10] it was 2.02 µM. For the same compound, the TGI in [1] came to 3.87 µM; in [2], 2.73 µM; in assay [3], 5.56 µM; in [4] it was 3.19 µM; in assay [5], 3.89 µM; in assay [6], 2.93 µM. Besides, the TGI in assay [7] turned out to be 8.44 µM; in assay [8], 19.2 µM; in assay [9], 4.42 µM; in assay [10], 4.64 µM.
